Test results taken from US11413321B2, “Pharmaceutical composition for use in increasing hair, modifying scalp or skin, healing a wound, promoting osteogenesis, or modifying hair” (priority 2017, dated 2022).

Tested on: PPAR-γ-positive cells
Experiment: Immunohistological staining of rat dorsal skin after injection of fatty acids (PPAR-γ)
Type: in vivo, Wistar rat
Details: 1 mg fatty acid in 20 μL per location
Description: Next, representative fatty acids contained in milk were administered to a 12-week-old Wistar rat at a plurality of locations on the dorsal skin as in Example 1(2) above, and a change in tissues by the administration was observed after the tissues were subjected to immunohistological staining. More specifically, physiological saline was administered in an amount of 20 μL per location, an administration liquid containing 1 mg of a fatty acid was administered in an amount of 20 μL per location, and a change in CD68-positive macrophage stained images and PPAR-γ-positive cell images by the administration was observed. Samples of the Wistar rat were obtained by sampling administration sites (four weeks after administration and eight weeks after administration). FIGS. 10A to 10G show the results. […] At saturated fatty acid injection sites, infiltration of a large number of CD68-positive cells was observed, and fibrillization of normal tissues was observed. Therefore, in FIGS. 10B to 10D, a change in fat tissues was examined at a location which was closest to the administration site and where normal tissues were maintained (non-fibrillization location).

CCCCCCCCCCCCCCCC(=O)O [palmitic acid]
increase in the number of PPAR-γ-positive cells at the administration site (eight weeks after administration): maintained | number of PPAR-γ-positive cells at the administration site (four weeks after administration, vs physiological saline, FIGS. 10B-10G): increased
